Test [1] relates to Huh-1_p62^−/− cells. Nature of the test: subdermal transplantation of Huh-1_p62−/− cells with introduced p62 mutants into nude mice. It counts as in vivo. The following applies: 50 days after transplantation, introduced into Huh-1_p62−/−. How it is done:
First, p62 cDNAs which encode S349E (SEQ ID No. 8) (pseudo-phosphorylated p62) with the substitution of glutamic acid for serine 349 of human p62 (SEQ ID No. 7), S349A (SEQ ID No. 9) (non-phosphorylated p62) with the substitution of alanine for serine 349 of human p62, or T350A (SEQ ID No. 10) (p62 mutant defective in interacting with Keap1) with the substitution of alanine for threonine 350 of human p62 was prepared.
Next, a [Huh-1_p62^−/−] cell line was generated by knocking out the p62 gene in Huh-1 cells, using Zinc Finger Nuclease system (Sigma-Aldrich, CompoZr (registered trademark) Zinc Finger Nuclease). Then, adenoviruses having p62 w.t. or p62 mutant were produced, using Adenovirus expression kit (Takara Bio). The [Huh-1_p62^−/−] cells were cultured in 2 ml of a growth medium (Williams E medium containing 10% fetal bovine serum, 5 U/ml penicillin, and 50 μg/ml streptomycin) for 24 hours. The medium was replaced with a fresh medium containing adenovirus at MOI of 50 and the cells were continuously cultured. Wild-type human p62 (SEQ ID No. 7), S349E (SEQ ID No. 8), S349A (SEQ ID No. 9), and T350A (SEQ ID No. 10) were introduced into the [Huh-1_p62^−/−] cell line and thus a [Huh-1_p62^−/−_p62 w.t.] cell line with p62 w.t., a [Huh-1_p62^−/−_p62S349E] cell line with p62S349E, a [Huh-1_p62^−/−_p62S349A] cell line with p62S349A, and a [Huh-1_p62^−/−_p62T350A] cell line with p62T350A, respectively, in [Huh-1_p62^−/−] cell line was obtained.
Each of the cells was transplanted subdermally into […] nude mice. […] Each cell line was transplanted into five mice and the volume (left) and the weight (right) of the tumors were measured 50 days after the transplantation. Mean±standard error for each cell line was calculated and shown in the graphs in FIG. 7(b).

The test system of test [2] is Nrf2. Nature of the test: immunoblotting of nuclear and whole cell extracts of hepatocytes expressing p62 mutants. It counts as cell-based, mouse. Particulars: normal hepatocytes. As to the method:
Adenoviruses capable of expressing FLAG-tagged p62 w.t. […] Next, normal hepatocytes were cultured in 2 ml of growth medium (Williams E medium containing 10% fetal bovine serum, 5 U/mL penicillin, and 50 μg/mL streptomycin) for 24 hours. The medium was replaced with fresh medium containing the adenovirus at MOI of 50 and the culture was continued. Twenty-four hours after the replacement of the medium, whole cell extract (Total) and nuclear extract (Nucleus) were prepared. Next, immunoprecipitates were prepared from the whole cell extract with anti-FLAG antibody (Sigma Chemical). Then, the samples were separated by NuPAGE electrophoresis system (Invitrogen) on 12% bis-tris gel and MOPS-SDS buffer, and transferred to PVDF membranes. The signals were detected using anti-p62 antibody (GP62C: Progen Biotechnik), anti-Keap1 antibody (Proteintech Group), anti-phosphorylated p62 antibody, anti-Nqo1 antibody (Abcam), anti-Actin antibody (MAB1501R: Millipore), anti-Nrf2 antibody (H-300: Santa Cruz Biotechnology), and anti-LaminB antibody (M-20: Santa Cruz Biotechnology).
Background: In western blotting, separated proteins are transferred to a membrane and probed.

Test [3] has as its target mouse Keap1-DC (aa321-609, SEQ ID No. 24) (Mus musculus, UniProt Q9Z2X8). Nature of the test: isothermal titration calorimetry, binding to Keap1-DC. Particulars: for Binding constant (Ka) to Keap1-DC: isothermal titration calorimetry, 25° C.; for binding affinity for Keap1-DC relative to KIR of the non-phosphorylated p62: fold higher binding constant. For orientation: Isothermal titration calorimetry measures the heat released or taken up as one component is titrated into another.
Procedure: Binding isotherms were obtained using isothermal titration calorimetry, for the interaction of mouse Keap1-DC (aa321-609, SEQ ID No. 24) with KIR in mouse non-phosphorylated p62 (SEQ ID No. 21), KIR in mouse phosphorylated p62 (SEQ ID No. 21), or an ETGE motif of mouse Nrf2 (SEQ ID No. 26) (FIG. 2).
First, isothermal titration calorimetry was performed using MicroCal iTC200 System (GE Healthcare) at 25° C. 2.5 μl of 0.1 mM solution of non-phosphorylated KIR (^348[sequence]^356, SEQ ID No. 21) was injected from a rotating syringe (1000 rpm) into 200 μl of 0.1 mM solution of Keap1-DC sixteen times at an interval of 3 minutes. 1.3 μl of 0.6 mM phosphorylated KIR (^348VDP(pS)TGELQ^356) solution was injected from a rotating syringe (1000 rpm) into 200 μl of 0.06 mM Keap1-DC solution thirty times at an interval of 2 minutes. […] The binding data were analyzed using Origin 7 software (GE healthcare).

This is an account of results in patent US9632092B2, “Reagent for diagnosing tumor, pharmaceutical composition, and screening method” (Tokyo Metropolitan Institute of Medical Science, priority 2012, dated 2017).

Where no end group is shown, it is not given here. [ ]: non-standard residue; d: D form. pS = N[C@@H](COP(=O)(O)O)C(=O)O

Chain of mouse Keap1-DC (aa321-609, SEQ ID No. 24) (Q9Z2X8 321-609): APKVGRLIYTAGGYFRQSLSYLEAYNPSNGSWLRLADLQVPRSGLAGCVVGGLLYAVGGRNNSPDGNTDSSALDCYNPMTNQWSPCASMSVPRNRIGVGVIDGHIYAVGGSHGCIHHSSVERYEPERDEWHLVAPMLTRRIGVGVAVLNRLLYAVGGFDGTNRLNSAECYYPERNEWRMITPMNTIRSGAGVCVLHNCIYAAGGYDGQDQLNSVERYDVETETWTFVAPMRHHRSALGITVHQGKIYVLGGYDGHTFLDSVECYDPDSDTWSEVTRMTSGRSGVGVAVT

For “S349A: non-phosphorylated human p62 mutant, alanine for serine 349, SEQ ID No. 9”, the “in vivo proliferation of the tumor cells (tumor volume and weight)” value (shortened to “in vivo proliferation of the tumor cells”) in test [1] is listed as “not recovered”.
Take “S351E: pseudo-phosphorylated mouse p62 mutant, glutamic acid for serine 351, SEQ ID No. 2”: the “Nrf2 accumulation in nuclei” value in test [2] (nuclear extract) is “significantly accumulated”. In addition, in test [2] (whole cell extract), the “expression of Nqo1 (Nrf2 target)” value is recorded as “induced”.
On to “T350A: human p62 mutant defective in interacting with Keap1, alanine for threonine 350, SEQ ID No. 10 [reference compound]”, for which the “in vivo proliferation of the tumor cells” value in test [1] is given as “not recovered”.
As for “non-phosphorylated p62-KIR: non-phosphorylated Keap1-interacting region peptide of mouse p62, 348VDPSTGELQ356, SEQ ID No. 21 (listed as Mus musculus) [reference compound]”, the “Binding constant (Ka) to Keap1-DC” value in test [3] was “(5.67±1.19)×10^4 M^−1”.
Take “p62 (S349E): pseudo-phosphorylated human p62 mutant, glutamic acid for serine 349, SEQ ID No. 8”: in test [1], the “in vivo proliferation of the tumor cells” value was “significantly enhanced”.
For “phosphorylated p62-KIR: Keap1-interacting region peptide of mouse p62 phosphorylated at serine 351, 348VDP(pS)TGELQ356 (VDP[pS]TGELQ; listed as Mus musculus)”, in test [3], the “binding affinity for Keap1-DC relative to KIR of the non-phosphorylated p62” value was “about 100 times” and the “Binding constant (Ka) to Keap1-DC” value is on record as “(5.12±1.80)×10^6 M^−1”. For the same substance, the “binding affinity for Keap1-DC relative to KIR of the non-phosphorylated p62” value in test [3] (listed as KIR in the phosphorylated p62) was “approximately 100 times”.
